Results: patent US20230031406A1, “COMPOUNDS AND COMPOSITIONS FOR TREATING CONDITIONS ASSOCIATED WITH NLRP ACTIVITY” (Novartis AG, priority 2018, published 2023)

Each compound was assayed on PMA-differentiated THP-1 cells (assay: IL-1β production in PMA-differentiated THP-1 cells stimulated with gramicidin (hTHP-1 assay containing 2% fetal bovine serum; Procedures 1 and 2)). Conditions: Homo sapiens, THP-1, Table B2; 2% fetal bovine serum; class symbols; read-out: hTHP-1 IC50.
Assay type: cell-based, human
In short: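 THP-1 cells were differentiated with PMA (20 ng/ml, 16-18 h), detached, and plated at 50,000 cells/well in RPMI 1640 with 2% FBS. They were pre-treated with compound (0.0017–100 μM, 0.37% DMSO) for 1 h, then stimulated with gramicidin (5 μM) for 2 h. Supernatant IL-1β was measured by HTRF.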

SMILES	IC50
CCn1ccc([S@](N)(=O)=NC(=O)Nc2c3c(nc(C4CC4)c2C2CC2)CCC3)n1 [Compound 726b]	200 to 1000 nM
CC(C)(O)c1cc(F)c(S(N)(=O)=NC(=O)Nc2c3c(nc(C4CC4)c2C2CC2)CCC3)s1 (stereo not shown) [Compound 727]	200 to 1000 nM
CC(C)(O)c1cc(F)c([S@@](N)(=O)=NC(=O)Nc2c3c(nc(C4CC4)c2C2CC2)CCC3)s1 [Compound 727a]	1000 to 5000 nM
CC(C)(O)c1cc(F)c([S@](N)(=O)=NC(=O)Nc2c3c(nc(C4CC4)c2C2CC2)CCC3)s1 [Compound 727b]	40 to 200 nM
NS(=O)(=NC(=O)Nc1c2c(nc(C3CC3)c1C1CC1)CCC2)c1ccn(C(F)F)n1 (stereo not shown) [Compound 728]	1000 to 5000 nM
N[S@](=O)(=NC(=O)Nc1c2c(nc(C3CC3)c1C1CC1)CCC2)c1ccn(C(F)F)n1 [Compound 728a]	5000 to 30000 nM
N[S@@](=O)(=NC(=O)Nc1c2c(nc(C3CC3)c1C1CC1)CCC2)c1ccn(C(F)F)n1 [Compound 728b]	200 to 1000 nM
CCn1cc(Cl)c(S(N)(=O)=NC(=O)Nc2c(C)c(C(F)(F)F)nc3c2CCC3)n1 (stereo not shown) [Compound 729]	200 to 1000 nM
Cc1c(C(F)(F)F)nc2c(c1NC(=O)N=S(N)(=O)c1ccn(C)n1)CCC2 (stereo not shown) [Compound 730]	5000 to 30000 nM
Cc1c(C(F)(F)F)nc2c(c1NC(=O)N=[S@@](N)(=O)c1ccn(C)n1)CCC2 [Compound 730b]	1000 to 5000 nM
CCn1ccc(S(N)(=O)=NC(=O)Nc2c(C)c(C(F)(F)F)nc3c2CCC3)n1 (stereo not shown) [Compound 731]	1000 to 5000 nM
CCn1ccc([S@@](N)(=O)=NC(=O)Nc2c(C)c(C(F)(F)F)nc3c2CCC3)n1 [Compound 731a]	5000 to 30000 nM
CCn1ccc([S@](N)(=O)=NC(=O)Nc2c(C)c(C(F)(F)F)nc3c2CCC3)n1 [Compound 731b]	200 to 1000 nM
Cc1c(C2(F)CC2)nc2c(c1NC(=O)N=S(N)(=O)c1sc(C(C)(C)O)cc1F)CCC2 (stereo not shown) [Compound 733]	1000 to 5000 nM
CC1(C)CCc2c1nc1c(c2NC(=O)N=S(N)(=O)c2cnc(C(O)(CO)CO)s2)CCC1 (stereo not shown) [Compound 734, N′-((3,3-dimethyl-1,2,3,5,6,7-hexahydrodicyclopenta[b,e]pyridin-8-yl)carbamoyl)-2-(1,2,3-trihydroxypropan-2-yl)thiazole-5-sulfonimidamide]	200 to 1000 nM
CNS(=O)(=O)c1cccc(S(N)(=O)=NC(=O)Nc2c3c(nc4c2CCC4(C)C)CCC3)c1 (stereo not shown) [Compound 735, 3-(N′-((3,3-dimethyl-1,2,3,5,6,7-hexahydrodicyclopenta [b,e]pyridin-8-yl)carbamoyl)sulfamidimidoyl)-N-methylbenzenesulfonamide]	1000 to 5000 nM
COCCOC[C@@](C)(O)c1ncc(S(N)(=O)=NC(=O)Nc2c3c(nc4c2CCC4(C)C)CCC3)s1 (stereo partly drawn) [Compound 736, N′-((3,3-dimethyl-1,2,3,5,6,7-hexahydrodicyclopenta [b,e]pyridin-8-yl)carbamoyl)-2-((R)-2-hydroxy-1-(2-methoxyethoxy)propan-2-yl)thiazole-5-sulfonimidamide]	1000 to 5000 nM
CC(C)(CO)c1ncc(S(N)(=O)=NC(=O)Nc2c3c(nc4c2CCC4(C)C)CCC3)s1 (stereo not shown) [Compound 737]	200 to 1000 nM

Same assay, conditions: Homo sapiens, THP-1, Table B2; 2% fetal bovine serum; numeric bounds; read-out: hTHP-1 IC50

SMILES	IC50
CCn1ccc([S@@](N)(=O)=NC(=O)Nc2c3c(nc(C4CC4)c2C2CC2)CCC3)n1 [Compound 726a]	> 30000 nM
Cc1nc2c(c(NC(=O)N=[S@@](N)(=O)c3cnc(C(C)(C)O)s3)c1C1CC1)CCC2 [Compound 738]	> 30000 nM

Same assay, conditions: Homo sapiens, THP-1, Table B3; hTHP-1 assay, 2% fetal bovine serum; class symbols; read-out: IC50

SMILES	IC50
CCn1cc(F)c(S(N)(=O)=NC(=O)Nc2c3c(nc(C(F)(F)F)c2C2CC2)CCC3)n1 (stereo not shown) [Compound 983]	40 to 200 nM
CC1(C)CCc2c1nc1c(c2NC(=O)N=[S@@](N)(=O)c2sc(C(O)(CO)CO)nc2CO)CCC1 [Compound 985a]	1000 to 5000 nM
CC1(C)CCc2c1nc1c(c2NC(=O)N=S(N)(=O)c2sc(C(O)(CO)CO)nc2CO)CCC1 (stereo not shown) [Compound 985b]	200 to 1000 nM
Cc1c(C(F)(F)F)nc2c(c1NC(=O)N=S(N)(=O)c1nn(C(F)F)cc1F)CCC2 (stereo not shown) [Example 561, 1-(Difluoromethyl)-4-fluoro-N′-((3-methyl-2-(trifluoromethyl)-6,7-dihydro-5H-cyclopenta[b]pyridin-4-yl)carbamoyl)-1H-pyrazole-3-sulfonimidamide]	200 to 1000 nM
CO[C@H]1COc2c(S(N)(=O)=NC(=O)Nc3c(C)c(C(F)(F)F)nc4c3CCC4)cnn2C1 (stereo partly drawn) [Example 564, (6R)-6-methoxy-N′-((3-methyl-2-(trifluoromethyl)-6,7-dihydro-5H-cyclopenta[b]pyridin-4-yl)carbamoyl)-6,7-dihydro-5H-pymzolo[5,1-b][1,3]oxazine-3-sulfonimidamide]	1000 to 5000 nM
Cc1c(C(F)(F)F)nc2c(c1NC(=O)N=S(N)(=O)c1cnn3c1OCCC3)CCC2 (stereo not shown) [Example 565, N′-((3-methyl-2-(trifluoromethyl)-6,7-dihydro-5H-cyclopenta [b]pyridin-4-yl)carbamoyl)-6,7-dihydro-5H-pyrazolo[5,1-b][1,3]oxazine-3-sulfonimidamide]	5000 to 30000 nM
Cc1nc2c(c(NC(=O)N=S(N)(=O)c3cc(C(C)(C)O)cs3)c1C(F)(F)F)CCC2 (stereo not shown) [Example 566, 4-(2-Hydroxypropan-2-yl)-N′-((2-methyl-3-(trifluoromethyl)-6,7-dihydro-5H-cyclopenta[b]pyridin-4-yl)carbamoyl)thiophene-2-sulfonimidamide]	200 to 1000 nM
CC(C)(O)c1csc(S(N)(=O)=NC(=O)Nc2cc(C(F)(F)F)nc3c2CCC3)c1 (stereo not shown) [Example 567, 4-(2-Hydroxypropan-2-yl)-N′-((2-(trifluoromethyl)-6,7-dihydro-5H-cyclopenta[b]pyridin-4-yl)carbamoyl)thiophene-2-sulfonimidamide]	5000 to 30000 nM
C[C@@H]1CCc2c1nc1c(c2NC(=O)N=S(N)(=O)c2nn(C(F)F)cc2F)CCC1 (stereo partly drawn) [Example 568, 1-(Difluoromethyl)-4-fluoro-N′-(((R)-3-methyl-1,2,3,5,6,7-hexahydrodicyclopenta[b,e]pyridin-8-yl)carbamoyl)-1H-pyrazole-3-sulfonimidamide]	40 to 200 nM
NS(=O)(=NC(=O)Nc1c2c(nc3c1CCC31CC1)CCC2)c1nn(C(F)F)cc1F (stereo not shown) [Example 569, 1-(Difluoromethyl)-4-fluoro-N′-((1′,5′,6′,7′-tetrahydro-2′H-spiro[cyclopropane-1,3′-dicyclopenta[b,e]pyridin]-8′-yl)carbamoyl)-1H-pyrazole-3-sulfonimidamide]	200 to 1000 nM
CC(C)(O)c1cc(F)c(S(N)(=O)=NC(=O)Nc2c3c(nc(C4CC4)c2C2CC2)CCC3)s1 (stereo not shown) [Example 570, N′-((2,3-dicyclopropyl-6,7-dihydro-5H-cyclopenta[b]pyridin-4-yl)calbamoyl)-3-fluoro-5-(2-hydroxypropan-2-yl)thiophene-2-sulfonimidamide]	200 to 1000 nM
NS(=O)(=NC(=O)Nc1c2c(nc(C3CC3)c1C1CC1)CCC2)c1ccn(C(F)F)n1 (stereo not shown) [Example 571, N′-((2,3-dicyclopropyl-6,7-dihydro-5H-cyclopenta[b]pyridin-4-yl)calbamoyl)-1-(difluoromethyl)-1H-pymzole-3-sulfonimidamide]	1000 to 5000 nM
CCc1c(C(F)(F)F)nc2c(c1NC(=O)N=S(N)(=O)c1nn(C(F)F)cc1F)CCC2 (stereo not shown) [Example 572, 1-(Difluoromethyl)-N′-((3-ethyl-2-(trifluoromethyl)-6,7-dihydro-5H-cyclopenta[b]pyridin-4-yl)calbamoyl)-4-fluoro-1H-pyrazole-3-sulfonimidamide]	1000 to 5000 nM
C[C@@H]1CCc2c1nc1c(c2NC(=O)N=[S@@](N)(=O)c2ccn(CF)n2)CCC1 [Example 573, (R)-1-(fluoromethyl)-N′—(((R)-3-methyl-1,2,3,5,6,7-hexahydrodicyclopenta[b,e]pyridin-8-yl)carbamoyl)-1H-pyrazole-3-sulfonimidamide]	1000 to 5000 nM
Cc1c(C(F)(F)F)nc2c(c1NC(=O)N=[S@@](N)(=O)c1cnc(C(C)(C)O)s1)C(C)CC2 (stereo partly drawn) [Example 575, (R)-N′-((3,5-dimethyl-2-(trifluoromethyl)-6,7-dihydro-5H-cyclopenta[b]pyridin-4-yl)carbamoyl)-2-(2-hydroxypropan-2-yl)thiazole-5-sulfonimidamide]	1000 to 5000 nM
Cc1c(C(F)(F)F)nc2c(c1NC(=O)N=[S@@](N)(=O)c1cnc(C(C)(C)O)s1)CC(C)C2 (stereo partly drawn) [Example 576, (R)-N′-((3,6-dimethyl-2-(trifluoromethyl)-6,7-dihydro-5H-cyclopenta[b]pyridin-4-yl)carbamoyl)-2-(2-hydroxypropan-2-yl)thiazole-5-sulfonimidamide]	200 to 1000 nM
CC(C)(O)c1ncc([S@](N)(=O)=NC(=O)Nc2c3c(nc(C(F)(F)F)c2C2CC2)CCC3)s1 [Example 577, (R)—N′-((3-cyclopropyl-2-(trifluoromethyl)-6,7-dihydro-5H-cyclopenta[b]pyridin-4-yl)carbamoyl)-2-(2-hydroxypropan-2-yl)thiazole-5-sulfonimidamide]	1000 to 5000 nM

Same assay, conditions: Homo sapiens, THP-1, read-out: hTHP-1 IC50 in 2% FBS, hTHP-1 assay containing 2% fetal bovine serum; Table B5

SMILES	IC50
CC(C)n1cc(F)c(S(N)(=O)=NC(=O)Nc2c3c(nc(C(F)(F)F)c2C2CC2)CCC3)n1 (stereo not shown) [Compound 1104, N′-((3-cyclopropyl-2-(trifluoromethyl)-6,7-dihydro-5H-cyclopenta[b]pyridin-4-yl)carbamoyl)-4-fluoro-1-isopropyl-1H-pyrazole-3-sulfonimidamide]	200 to 1000 nM

Same assay, conditions: Table B3; hTHP-1 assay, 2% fetal bovine serum; class symbols; listed as Compound 984a; read-out: IC50

SMILES	IC50
NS(=O)(=NC(=O)Nc1c2c(nc(C(F)(F)F)c1C1CC1)CCC2)c1nn(C(F)F)cc1F (stereo not shown) [Compound 984a]	5000 to 30000 nM

Same assay, conditions: Table B3; hTHP-1 assay, 2% fetal bovine serum; class symbols; listed as Compound 984b; read-out: IC50

SMILES	IC50
NS(=O)(=NC(=O)Nc1c2c(nc(C(F)(F)F)c1C1CC1)CCC2)c1nn(C(F)F)cc1F (stereo not shown) [Compound 984b]	40 to 200 nM
